Measured values published in patent US20260226089A1, “METHOD FOR CONTROLLING IMPURITIES IN L-ARABINOSE AND USE THEREOF” (THOMSON BIOTECH (XIAMEN) PTE. LTD., priority 2023, published 2026).

Columns and labels:
[1] = test system: constipation model rats; assay: Therapeutic effect on constipation model rats (modeling with compound diphenoxylate); assay type: in vivo, rat; details: n = 8; for Time for first dark stools min: first administration with 5% activated carbon; for Time for first dark stools min / Small intestine propulsion rate %: x ± sd; for Small intestine propulsion rate %: gavage once daily; for Water content of stools %: stools collected on day 7, x ± sd
Excerpt: • Modeling procedure: modeling with compound diphenoxylate. • Experimental drugs and reagents: activated carbon (5%); a 0.4 g/mL aqueous solution prepared from an arabinose drug. • Positive control: PEG (Shutaiqing). SPF-grade rats (Zhejiang Vital River Laboratory Animal Technology Co., Ltd.).
Except for the normal group, the successfully modeled rats were randomly divided into 5 groups, including a model group, a low dose group, a medium dose group, a high dose group, and a positive control group, 8 animals per group. Each rat was housed individually in separate cages, and operations were conducted fixedly at 10:00-12:00 every day. The normal group and the model group were gavaged with 0.2 mL of purified water. The positive control group was gavaged with 0.133 mL of a mosapride solution, and the low dose group, the medium dose group, and the high dose group were gavaged with 0.01 mL, 0.02 mL, and 0.04 mL of the test drug, respectively, with the volume adjusted to 0.2 mL using purified water. The rats had free access to food and water. The administration was performed for 7 consecutive days (times).
For the first administration, the drug with 5% activated carbon (based on 0.2 g×5%) added was intragastrically administered to the treatment group, and 0.2 mL of purified water with activated carbon added was intragastrically administered to the normal group and the model group. The time for the first dark stools was recorded.
The rats were intragastrically administered once daily. On day 7 after the continuous administration, the stools were collected using a sterile centrifuge tube and stored at −100° C. The collected stools were dried at 105° C. to a constant weight, and the water content of the stools was calculated according to the formula: water content of stools=(1−mass after drying/mass before drying)×100%.
The rats were intragastrically administered once daily for 14 days and then fasted for 12 h. 1 h after the last administration, each group of animals was gavaged with 0.15 mL of 5% activated carbon, and 30 min later, the rats were anesthetized with an intraperitoneal injection of 10% chloral hydrate. After anesthesia was completed, the abdominal operation was immediately performed. The intestinal canal from pylorus to ileocecal junction was cut off and placed on a glass plate. The length of the intestinal tract traversed by the ink and the total length of the intestinal tract were measured. The intestinal propulsion rate was the ratio of the two. The total length from pylorus to ileocecal junction and the distance from pylorus to the front of the carbon ink were measured, and the carbon ink propulsion percentage was calculated. Intestinal propulsion rate=distance from front of carbon ink to pylorus/full length of small intestine×100%.

[2] = test system: SPF-grade rats; assay: Rat bowel preparation experiment (bowel cleansing effect); assay type: in vivo
Excerpt: Experimental materials: L-arabinose, selected from the L-arabinose crystallization sample with batch No. 1221 in the example, prepared into a 0.4 g/mL solution with purified water; PEG (Shutaiqing), prepared into a 0.521 g/mL PEG solution with purified water; SPF-grade rats (Zhejiang Vital River Laboratory Animal Technology Co., Ltd.). • 5.1. Experimental animals and feeding thereof: SPF (specific pathogen free)-grade rats (200±10 g), 6 weeks old; normal feed was D12450-B feed: 67.35 wt % carbohydrates, 19.2 wt % crude protein, and 4.3 wt % fat. The temperature of the room was kept at 24° C. to 26° C. with humidity at 40% to 60%. • 5.2. Experimental method and procedures:
The SPF-grade rats were randomly divided into a blank control group, a positive control group, and a treatment group, 10 animals per group, half being male and half female. Administration method: Animals in each group were fasted (water was accessible) starting at 22:00 the night before experiment, were each given ½ the calculated amount of drug by intragastrical administration at 7:00 and 9:00 on the day of experiment, were each given 2.0 mL of purified water at 12:00 and 13:00, and were dissected 3.5 h after the last administration.

SMILES	Time for first dark stools min ([1]; High dose 0.80 g kg/d)	Small intestine propulsion rate % ([1]; High dose 0.80 g kg/d)	Water content of stools % ([1]; High dose 0.80 g kg/d)	Time for first dark stools min ([1]; Low dose 0.20 g kg/d)	Small intestine propulsion rate % ([1]; Low dose 0.20 g kg/d)	Water content of stools % ([1]; Low dose 0.20 g kg/d)	Time for first dark stools min ([1]; Medium dose 0.40 g kg/d)	Small intestine propulsion rate % ([1]; Medium dose 0.40 g kg/d)	Water content of stools % ([1]; Medium dose 0.40 g kg/d)	Dosage relative to that administered to the positive control group to achieve the same effect ([2]; 9 g/kg L-arabinose vs 21.9 g/kg PEG)	Stools observed before the dissection ([2]; L-arabinose batch No. 1221, 9 g/kg (22.5 mL/kg) intragastric in 2 doses, fasted rats)	Residue in the rectum and colon after the dissection ([2]; L-arabinose batch No. 1221, 9 g/kg intragastric in 2 doses, dissected 3.5 h after last administration)	Time for first dark stools min ([1]; Positive control 2.0 mg kg/d)	Small intestine propulsion rate % ([1]; Positive control 2.0 mg kg/d)	Water content of stools % ([1]; Positive control 2.0 mg kg/d)
O=C[C@H](O)[C@@H](O)[C@@H](O)CO [L-arabinose, L-Arabinose]	63 ± 5.7 min	83% ± 2.8	61% ± 2.4	76 ± 8.5 min	75% ± 3.1	54% ± 1.8	64 ± 6.2 min	80% ± 2.7	59% ± 2.7	41%	Watery and loose stools	no residue was left in the rectum and colon			
CCOc1cc(N)c(Cl)cc1C(=O)NCC1CN(Cc2ccc(F)cc2)CCO1 (stereo not drawn) [Positive control, reference compound]													67 ± 8.8 min	82% ± 4.4	57% ± 0.9
